Results as given in patent publication US8952024B2, “Herbicidal pyrimidone derivatives” (E I du Pont de Nemours and Company, priority 2009, dated 2015).

Tests used:
Assay in all cases: Test B pre-/postemergence plant response
Type in all cases: in vivo
[1] = tested on: goosegrass (Eleusine indica); details: Preemergence, 62 g ai/ha; scale 0 to 100 (0 no effect, 100 complete control)
[2] = tested on: nightshade (eastern black nightshade, Solanum ptycanthum); details: Preemergence; for Nightshade plant response rating: 125 g ai/ha
How it was run: (§1)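 Steps: sow seed in loam–sand soil and spray preemergence, or grow plants in peat-based medium to 1–4 leaves (2–18 cm) and spray postemergence; formulation is non-phytotoxic solvent plus surfactant; hold in greenhouse 13–15 days; score visually vs controls, 0 = no effect, 100 = complete control.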

[3] = tested on: sunflower (common oilseed sunflower, Helianthus annuus); details: Preemergence; for Sunflower plant response rating: 125 g ai/ha
How it was run: as §1

[4] = tested on: galium (catchweed bedstraw, Galium aparine); details: Preemergence; for Galium plant response rating: 125 g ai/ha
How it was run: as §1

wild oat (Avena fatua) = tested on: wild oat (Avena fatua)
How it was run: as §1

[5] = 31 g ai/ha, scale 0 to 100 (0 no effect, 100 complete control)
[6] = 62 g ai/ha, scale 0 to 100 (0 no effect, 100 complete control)
[7] = 250 g ai/ha, Preemergence, 0 to 100 scale
[8] = Postemergence, 31 g ai/ha, scale 0 to 100 (0 no effect, 100 complete control)
[9] = Postemergence, 62 g ai/ha, scale 0 (no effect) to 100 (complete control), 13 to 15 days
[10] = Postemergence, 125 g ai/ha, visual rating after 13 to 15 days, scale 0 (no effect) to 100 (complete control)
[11] = Postemergence, 250 g ai/ha, scale 0 to 100
[12] = Preemergence, 31 g ai/ha, scale 0 to 100 (0 no effect, 100 complete control)
[13] = Preemergence, 62 g ai/ha, scale 0 to 100 (0 no effect, 100 complete control)
[14] = Preemergence, 125 g ai/ha, 0 to 100 scale

Compound: 3-cyclohexyl-5-[(2-hydroxy-6-oxo-1-cyclohexen-1-yl)carbonyl]-2-phenyl-4(3H)-pyrimidinone [Compound 128]
- Plant response rating, Goosegrass [1]: 95
- Plant response rating, Nightshade ([2]; 250 g ai/ha, 0 to 100 scale): 100
- Plant response rating, Nightshade [2, 5]: 85
- Plant response rating, Nightshade [2, 6]: 100
- Nightshade plant response rating ([2]; 0 to 100 scale): 100
- Plant response rating, Sunflower ([3]; 250 g ai/ha, 0 to 100 scale): 98
- Plant response rating, Sunflower [3, 5]: 75
- Plant response rating, Sunflower [3, 6]: 85
- Sunflower plant response rating ([3]; 0 to 100 scale): 95
- Plant response rating, Galium ([4]; 250 g ai/ha, 0 to 100 scale): 75
- Plant response rating, Galium [4, 5]: 5
- Plant response rating, Galium [4, 6]: 50
- Galium plant response rating ([4]; 0 to 100 scale): 50
- Plant response rating, Oat, Wild (wild oat (Avena fatua); [7]): 40
- Plant response rating, Oat, Wild (wild oat (Avena fatua); [8]): 50
- Plant response rating, Oat, Wild (wild oat (Avena fatua); [9]): 50
- Plant response rating, Oat, Wild (wild oat (Avena fatua); [10]): 70
- Oat, Wild plant response rating (wild oat (Avena fatua); [11]): 70
- Plant response rating, Oat, Wild (wild oat (Avena fatua); [12]): 0
- Plant response rating, Oat, Wild (wild oat (Avena fatua); [13]): 0
- Oat, Wild plant response rating (wild oat (Avena fatua); [14]): 10

Compound: Cc1ccccc1-n1c(-c2ccccc2)ncc(C(=O)C2=C(O)CCCC2=O)c1=O [Compound 12]
- Plant response rating, Goosegrass [1]: 95
- Plant response rating, Nightshade ([2]; 250 g ai/ha, 0 to 100 scale): 100
- Plant response rating, Nightshade [2, 5]: 100
- Plant response rating, Nightshade [2, 6]: 100
- Nightshade plant response rating ([2]; 0 to 100 scale): 100
- Plant response rating, Sunflower ([3]; 250 g ai/ha, 0 to 100 scale): 100
- Plant response rating, Sunflower [3, 5]: 95
- Plant response rating, Sunflower [3, 6]: 98
- Sunflower plant response rating ([3]; 0 to 100 scale): 98
- Plant response rating, Galium ([4]; 250 g ai/ha, 0 to 100 scale): 95
- Plant response rating, Galium [4, 5]: 0
- Plant response rating, Galium [4, 6]: 50
- Galium plant response rating ([4]; 0 to 100 scale): 90
- Plant response rating, Oat, Wild (wild oat (Avena fatua); [7]): 5
- Plant response rating, Oat, Wild (wild oat (Avena fatua); [8]): 0
- Plant response rating, Oat, Wild (wild oat (Avena fatua); [9]): 5
- Plant response rating, Oat, Wild (wild oat (Avena fatua); [10]): 20
- Oat, Wild plant response rating (wild oat (Avena fatua); [11]): 20
- Plant response rating, Oat, Wild (wild oat (Avena fatua); [12]): 0
- Plant response rating, Oat, Wild (wild oat (Avena fatua); [13]): 0
- Oat, Wild plant response rating (wild oat (Avena fatua); [14]): 0

Compound: O=C1CCCC(O)=C1C(=O)c1cnc(-c2ccccc2)n(-c2ccccc2F)c1=O [Compound 26]
- Plant response rating, Goosegrass [1]: 80
- Plant response rating, Nightshade ([2]; 250 g ai/ha, 0 to 100 scale): 100
- Plant response rating, Nightshade [2, 5]: 85
- Plant response rating, Nightshade [2, 6]: 100
- Nightshade plant response rating ([2]; 0 to 100 scale): 100
- Plant response rating, Sunflower ([3]; 250 g ai/ha, 0 to 100 scale): 95
- Plant response rating, Sunflower [3, 5]: 60
- Plant response rating, Sunflower [3, 6]: 90
- Sunflower plant response rating ([3]; 0 to 100 scale): 90
- Plant response rating, Galium ([4]; 250 g ai/ha, 0 to 100 scale): 98
- Plant response rating, Galium [4, 5]: 0
- Plant response rating, Galium [4, 6]: 50
- Galium plant response rating ([4]; 0 to 100 scale): 90
- Plant response rating, Oat, Wild (wild oat (Avena fatua); [7]): 5
- Plant response rating, Oat, Wild (wild oat (Avena fatua); [8]): 40
- Plant response rating, Oat, Wild (wild oat (Avena fatua); [9]): 40
- Plant response rating, Oat, Wild (wild oat (Avena fatua); [10]): 45
- Oat, Wild plant response rating (wild oat (Avena fatua); [11]): 60
- Plant response rating, Oat, Wild (wild oat (Avena fatua); [12]): 0
- Plant response rating, Oat, Wild (wild oat (Avena fatua); [13]): 0
- Oat, Wild plant response rating (wild oat (Avena fatua); [14]): 0

Compound: Cc1cc(C)cc(-n2c(-c3ccccc3)ncc(C(=O)C3=C(O)CCCC3=O)c2=O)c1 [Compound 33]
- Plant response rating, Goosegrass [1]: 85
- Plant response rating, Nightshade ([2]; 250 g ai/ha, 0 to 100 scale): 100
- Plant response rating, Nightshade [2, 5]: 80
- Plant response rating, Nightshade [2, 6]: 100
- Nightshade plant response rating ([2]; 0 to 100 scale): 100
- Plant response rating, Sunflower ([3]; 250 g ai/ha, 0 to 100 scale): 90
- Plant response rating, Sunflower [3, 5]: 65
- Plant response rating, Sunflower [3, 6]: 75
- Sunflower plant response rating ([3]; 0 to 100 scale): 75
- Plant response rating, Galium ([4]; 250 g ai/ha, 0 to 100 scale): 90
- Plant response rating, Galium [4, 5]: 0
- Plant response rating, Galium [4, 6]: 10
- Galium plant response rating ([4]; 0 to 100 scale): 50
- Plant response rating, Oat, Wild (wild oat (Avena fatua); [7]): 50
- Plant response rating, Oat, Wild (wild oat (Avena fatua); [9]): 15
- Plant response rating, Oat, Wild (wild oat (Avena fatua); [10]): 40
- Plant response rating, Oat, Wild (wild oat (Avena fatua); [12]): 0
- Plant response rating, Oat, Wild (wild oat (Avena fatua); [13]): 0
- Oat, Wild plant response rating (wild oat (Avena fatua); [14]): 30
